Experimental data reported in PubChem BioAssay (NCI).
Where “and” joins values, the source holds several entries; their conditions need not be identical. Equal entries are not always repeated.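 Each compound was tested at five concentrations against cells in 96-well plates for 48 hours. GI50 marks 50% less growth. At the TGI there is no net growth.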

Assays:
Assay in all cases: NCI-60 cell line screen, 48 h
[1] = system: ACHN renal
[2] = system: U251 CNS
[3] = system: IGROV1 ovarian
[4] = system: LOX IMVI melanoma
[5] = system: EKVX NSCLC
[6] = system: T-47D breast
[7] = system: DU-145 prostate
[8] = system: SR leukemia
[9] = system: OVCAR-8 ovarian
[10] = system: NCI-H226 lung

SMILES | GI50 [1] [µM] | TGI [1] [µM] | GI50 [2] [µM] | TGI [2] | GI50 [3] [µM] | TGI [3] | GI50 [4] [µM] | TGI [4] | GI50 [5] | TGI [5] [µM] | GI50 [6] [µM] | TGI [6] [µM] | GI50 [7] [µM] | TGI [7] | GI50 [8] [µM] | TGI [8] [µM] | GI50 [9] [µM] | TGI [9] | GI50 [10] | TGI [10]
CN1CCC(=C(c2ccc(Cl)cc2)c2ccccn2)CC1 | > 100 | > 100 | > 100 | > 100 µM | 78.7 | > 100 µM | 56.7 | > 100 µM | > 100 µM | > 100 | > 100 | > 100 | > 100 | > 100 µM | > 100 | > 100 | > 100 | > 100 µM | 90.2 µM | > 100 µM
CN(C)C/C=C/C(=O)Nc1ccc(C(=O)Nc2cccc(Nc3ncc(Cl)c(-c4c[nH]c5ccccc45)n3)c2)cc1 | 0.0957 | – | 0.0238 | > 38.2 µM | 0.0251 | – | 0.0133 | 0.0856 µM | 0.03 µM | 0.283 | 0.0284 | > 100 | 0.0307 | 0.81 µM | 0.017 | > 100 | 0.0428 | > 100 µM | 0.106 µM | 0.369 µM
O=C(O)C1CC[N-]CC1.O=C(O)C1CC[N-]CC1.[NH2-].[NH2-].[Pt+4] | > 100 | > 100 | > 100 | > 100 µM | > 100 | > 100 µM | > 100 | > 100 µM | > 100 µM | > 100 | > 100 | > 100 | > 100 | > 100 µM | > 100 | > 100 | > 100 | > 100 µM | > 100 µM | > 100 µM
Cc1[nH]c(N)nc(=S)c1CCCNc1ccccc1 | – | > 100 | – | > 100 µM | – | > 100 µM | – | > 100 µM | – | > 100 | – | > 100 | – | > 100 µM | – | 96.9 | – | > 100 µM | – | > 100 µM
Cc1cc2c(C(C)C)c(O)c(O)c(/C=N/O)c2c(O)c1-c1c(C)cc2c(C(C)C)c(O)c(O)c(/C=N/O)c2c1O | 2.04 | 7.45 | 1.89 | 11.8 µM | 3.54 | 16 µM | 1.53 | 3.47 µM | 1.94 µM | 11.4 | 2 | 8.42 | 2.77 | 13.7 µM | 3.22 | 13.5 | 2.94 | 13.2 µM | 2.87 µM | 9.72 µM
Cn1ccc(S(=O)(=O)N2CCC[C@H](Nc3nccc(-c4c(-c5cccc(O)c5)nc5occn45)n3)C2)n1 | 7.19 | > 100 | 22.3 | > 100 µM | 10.9 | 51.9 µM | 2.87 | 18.7 µM | – | – | 18.5 | 70.5 | 16.6 | > 100 µM | 8.19 | 46.2 | 18.9 | > 100 µM | 11.5 µM | > 84.8 µM
C=CCc1cc(O)ccc1O | 15.1 | 28.3 | 36.4 | > 100 µM | 43.4 | > 100 µM | 17 | 48.8 µM | 41.1 µM | > 100 | 16.9 | 84.4 | 85 | > 100 µM | 9.14 | > 100 | 28.7 | > 100 µM | 44.2 µM | > 100 µM
C/C=C(/C)C(=O)OC1C=C(CO)C(=O)C(OC(=O)C2(C)OC2C)C1C(C)C (configuration not stated) | 1.48 | 2.81 | 1.52 | 2.85 µM | 1.99 | 4.55 µM | 1.71 | 3.3 µM | 2.75 µM | 7.63 | 1.27 | 2.79 | 1.52 | 2.88 µM | 0.778 | 8.2 | 2.07 | 5.54 µM | 3.55 µM | 13.7 µM
CC[C@@]1(O)C(=O)OCc2c1cc1n(c2=O)Cc2cc3cc(O)ccc3nc2-1 | – | 0.457 | – | 0.0327 µM | 0.238 | 22.8 µM and 2.67 µM | – | 1.17 µM and 0.224 µM | 0.107 µM and 0.903 µM | – | – | > 100 | – | 0.0786 µM | – | 2.14 | – | 2.47 µM and 0.477 µM | 0.0162 µM and 0.0165 µM | 0.0907 µM and 0.113 µM
Nc1nc(N)c2c(Cl)c(CNc3ccc(Cl)c(Cl)c3)ccc2n1 | – | 14 | – | 11.2 µM | – | 13.4 µM | – | 7.37 µM | – | 19.2 | – | 23.3 | – | 15.7 µM | – | 7.36 | – | 16 µM | – | 33.7 µM
Oc1c(Cl)cc(Cl)c(Cl)c1Cc1c(O)c(Cl)cc(Cl)c1Cl | 2.27 | 31.3 | 1.09 | 12.7 µM | 1.87 | 23.6 µM | 2.39 | 11.2 µM | 0.973 µM | 16.7 | 2.41 | 15 | 4.13 | 22.1 µM | 1.19 | > 100 | 0.941 | 16.5 µM | 2.46 µM | 13 µM
CN1C(=O)[C@@H](CC2CCCC2)N(C2CCCC2)c2nc(Nc3cc(Cl)c(O)c(Cl)c3)ncc21 | 18.7 | > 100 | 21.6 | 86.9 µM | 32.9 | > 100 µM | 19.5 | 49.3 µM | 22.4 µM | > 100 | 12.9 | 74.9 | 27.6 | > 100 µM | 13 | 62.1 | 28.4 | > 100 µM | 25 µM | > 100 µM
CCCCNC(=O)CC1=C(C)/C(=C/c2[nH]c(-c3ccc[nH]3)cc2OC)N=C1C | 2.26 | 5.64 | 2.86 | 12.1 µM | 3.23 | 10.3 µM | 1.56 | 3.17 µM | 2.29 µM | 15.5 | 2.41 | 7.39 | 4 | 16.6 µM | 1.87 | 5.43 | 3.44 | 11.1 µM | 2.74 µM | 8.77 µM
CC(=O)NC(CCc1ccc(Cl)c(Cl)c1)c1cccc(O)c(=O)c1 (configuration not stated) | 0.286 | 31.6 | 0.428 | 11.5 µM | 0.539 | 3.33 µM | 0.559 | 7.5 µM | – | – | 1.1 | 38.6 | 1.18 | > 49.2 µM | 0.622 | 31.1 | 0.346 | 13.1 µM | 0.633 µM | 14.2 µM
C=C(CC)C(=O)c1ccc(OCC(=O)O)c(Cl)c1Cl | – | > 72.9 | – | 29.7 µM | – | 47.5 µM | – | 29.7 µM | – | 38.3 | – | 27.6 | – | > 73.2 µM | – | > 100 | – | 37.2 µM | – | 45.8 µM
COC(=O)C1C(=O)C(C(=O)OC)C2CCC1N2C (configuration not stated) | – | > 100 | – | > 100 µM | – | > 100 µM | – | > 83.1 µM | – | > 100 | – | > 100 | – | > 100 µM | – | > 100 | – | > 100 µM | – | > 94.9 µM
CCN1C[C@@H](C)n2c(c(O)c3c(=O)n(Cc4ccc(F)c(Cl)c4)nc(C(=O)NC)c32)C1=O | 2.85 | 8.87 | – | – | 3.74 | > 100 µM | 3.13 | 18 µM | – | – | 3.57 | > 100 | 3.57 | 13.8 µM | 3.22 | 14.8 | 3.34 | > 100 µM | 3.31 µM | > 100 µM
O=C(CCl)N1CCN(c2ccccc2)CC1 | – | 41.1 | – | 34.4 µM | – | 51.7 µM | – | – | – | 44.2 | – | 45.8 | – | > 100 µM | – | > 100 | – | 97.2 µM | – | –
N#CC(Cl)CS(=O)(=O)c1ccccc1 (configuration not stated) | – | 9.96 | – | 44.7 µM | – | 38 µM | – | 22 µM | – | 38.6 | – | 6.06 | – | 32.4 µM | – | 12.1 | – | 11.1 µM | – | 46.7 µM
CCc1nc(N)nc(N)c1-c1ccc(N2CCNCC2)c([N+](=O)[O-])c1 | – | > 100 | – | > 100 µM | – | > 100 µM | – | > 66.1 µM | – | > 100 | – | > 100 | – | > 100 µM | – | > 100 | – | > 100 µM | – | > 100 µM
CCN(CC)CCN1C(=O)c2c(c3c4cccc(Cl)c4n(C4OC(CO)C(OC)C(O)C4O)c3c3[nH]c4c(Cl)cccc4c23)C1=O (configuration not stated) | < 0.0001 | – | < 0.0001 | – | – | – | < 0.0001 | – | – | – | – | 2.26 | – | 0.0845 µM | < 0.0001 | – | < 0.0001 | – | – | –
O=C1NC(=NCCc2ccccc2F)S/C1=C\c1ccc2ncccc2c1 | 9.06 | > 25 | 4.69 | > 25 µM | 7.02 | > 25 µM | 1.82 | > 25 µM | – | – | 9.55 | > 25 | 8.81 | > 25 µM | 0.88 | 8.83 | 9.65 | > 25 µM | 7.59 µM | > 25 µM
O=C1NC(c2cccc3ccccc23)Nc2ccc(Cl)cc21 (configuration not stated) | – | 10.7 | – | 0.022 µM and 0.0266 µM | – | 32.9 µM | – | 14.6 µM | 0.0129 µM | 83.3 | – | 68.5 | – | 0.169 µM and 1.43 µM | – | 0.000654 | – | 11.4 µM | – | –
CCN(CC)CCOc1ccc2c(-c3ccccc3)c(-c3ccc(OC)cc3)c(=O)oc2c1 | 6.82 | 20.1 | 4.51 | 20.9 µM | – | – | 1.93 | 4.27 µM | 6.14 µM | 20.3 | 3.57 | 15.9 | 10.5 | 22.6 µM | 1.62 | 4.33 | 13.1 | 29.1 µM | 13.6 µM | 32.5 µM
N#Cc1c(-c2ccccc2)nc(SCC(O)CN2CCOCC2)nc1N1CCOCC1 (configuration not stated) | 10.8 | > 100 | 24.4 | > 100 µM | – | – | 17.6 | > 100 µM | 7.52 µM | > 100 | 1.33 | 6.03 | 24.5 | > 100 µM | 32.2 | > 100 | 11.4 | > 100 µM | 7.12 µM | > 100 µM
Oc1ccc(/C=N/NC(=S)Nc2ccccc2)nc1 | 0.552 | > 100 | 0.65 | 81.8 µM | 3.68 | > 100 µM | 0.464 | 16.6 µM | – | – | 1.54 | > 100 | 1.1 | > 100 µM | 0.582 | > 100 | 0.586 | > 100 µM | 2.33 µM | 6.83 µM
N#Cc1ncc(-c2ccc(C(F)(F)F)cc2)c(NC2CCCCCC2)n1 | 24 | > 100 | – | – | 38.8 | > 100 µM | – | – | – | – | 6 | > 100 | 44.8 | > 100 µM | 16.6 | > 100 | 70.8 | > 100 µM | 21.8 µM | > 100 µM
O=C(CCl)N1CCN(c2ccccn2)CC1 | – | 61.2 | – | 33.9 µM | – | 45.7 µM | – | – | – | 48.6 | – | 31.7 | – | > 100 µM | – | > 100 | – | 60.8 µM | – | –
COc1cc(C(=O)/C=C/c2cccnc2Nc2ccc(Cl)cc2)cc(OC)c1OC | 1.77 | 3.18 | 1.25 | 2.54 µM | 2.24 | 4.78 µM | 1.27 | 2.59 µM | 1.61 µM | 3.16 | 1.42 | 3.24 | 1.63 | 2.98 µM | – | – | 1.63 | 4.31 µM | 1.16 µM | 2.45 µM
CCN(CC)Cc1cc(Nc2ccnc3ccc(OC)cc23)ccc1O | 2.82 | 9.5 | 4.46 | 17.9 µM | – | – | 2.36 | 6.48 µM | 5.16 µM | 38.8 | 5.69 | 44.7 | 3.93 | 16.8 µM | 2.85 | 7.77 | 7.21 | 34.5 µM | 4.15 µM | 21.7 µM
